# Measured values from patent US20130245026A1, “TREATMENT OF CANCER WITH TOR KINASE INHIBITORS” (SIGNAL PHARMACEUTICALS, LLC, priority 2012, published 2013).
# Like-named read-outs stand apart in the source and are kept apart here.
# Columns and labels:
# [1] = system: patient-derived tumor cells; experiment: Apoptosis assay using patient tumor cells (CellEvent, caspase 3 and 7); type: cell-based, human; details: concentration between 0.1-10 μM; 48 hours of treatment
# Method: (§1) Proliferation and Apoptosis Assay Using Patient Tumor Cells.
# (§2) Cryopreserved patient-derived tumor cells were resurrected from liquid nitrogen storage and conditioned on coated plates prior to drug treatment. […] The mitotic activity of the cells was assessed by measuring ethynyl […] (EdU) incorporation during S-phase. The untreated control wells received medium containing DMSO (vehicle used to dissolve each compound and EdU). […] The apoptotic activity of the cells was assessed by measuring CellEvent incorporation due to caspase 3 and 7 activation. The untreated control wells received medium containing DMSO (vehicle used to dissolve each compound and CellEvent). After conditioning, cell lines were plated on a 3D matrix in two 96-well plates. The cells were allowed to settle and form spheroid structures for 48 hours. Then, 48 hours after plating, the cells were treated with compound.
# The cells were treated only on Day 1. After 48 hours of compound treatment, CellEvent was added to measure the apoptotic activity in cells. […] For the Apoptosis assay, images were analyzed using a Multi Wavelength Scoring Algorithm (Molecular Devices, Sunnyvale, Calif.) to quantify mean fluorescent intensities (MFI) of each well for activated caspase 3 and 7 using CellEvent. The CellEvent mean fluorescence intensities (MFI) of treated wells and untreated controls were averaged and plotted.
# [2] = system: patient-derived tumor cells; experiment: Proliferation assay using patient tumor cells (EdU incorporation, 3D matrix); type: cell-based; details: Homo sapiens
# Method: as §1, §2
# The cells were treated only on Day 1. For the last 48 hours of the treatment, EdU was added to measure the cell proliferation. At the end of the treatment, plates were fixed, permeabilized and stained for EdU uptake (proliferation marker) and DAPI (nuclear marker). Plates were imaged at 4× magnification using ImageXpress Micro (Molecular Devices, Sunnyvale, Calif.). Seven z-stacks at 5 sites per well were captured and deconvoluted to create the images for analysis. For the proliferation assay, images were analyzed using a Multi Wave Scoring Algorithm (Molecular Devices, Sunnyvale, Calif.) to quantify mean fluorescent intensities (MFI) of each well for EdU. The EdU MFI's for the treated wells were normalized to those of the untreated wells to generate the compound response curves.
# [3] = system: FADU; experiment: Growth inhibition assay for head and neck (HN) cancer cell lines; type: cell-based; details: Homo sapiens, 72 hours, Cell Titer-Glo
# Method: (§3) Growth Inhibition Assay for Head and Neck (HN) Cancer Cell Lines.
# (§4) A serial titration was performed to produce a working concentration range of 1.5 μM to 10 mM. Aliquots to produce final concentrations of 1.5 nM to 10 μM were spotted via an acoustic dispenser (EDC ATS-100) into an empty 384-well plate. […] The DMSO concentration was kept constant for a final assay concentration of 0.1% DMSO. Plates were replicated for use with different cell lines and testing periods. After compound plate replication, all plates were sealed (Agilent ThermoLoc) and stored at −20° C. for up to 1 month. […] When ready for testing, plates were removed from the freezer, thawed, and unsealed just prior to the addition of the test cells. Prior to testing, cells were grown and expanded in culture flasks to provide sufficient amounts of starting material. Cells were then diluted to the appropriate densities and added directly to the compound-spotted 384-well plates. Cells were allowed to grow for 72 hours at 37° C./5% CO2. At the time when compound was added (t0), initial cell number was assessed via a viability assay (Cell Titer-Glo) by quantifying the level of luminescence generated by ATP present in viable cells. After 72 hours, cell viability of compound-treated cells was assessed via Cell Titer-Glo and luminescence measurement. […] A control cell line (the lung tumor cell line, A549) was included in each of the assays. The compound response against this control cell line was monitored closely to enable comparison of the data generated through the assay period. All data were normalized and presented as a percentage of the DMSO-treated cells. Results were then expressed as a GI50 value. The GI50 value corrects for the cell count at time zero.
# [4] = system: CAL-27; experiment: as above; type: cell-based; details: Homo sapiens, 72 hours, Cell Titer-Glo
# Method: as §3, §4
# [5] = system: RPMI-2650; experiment: as above; type: cell-based; details: Homo sapiens, 72 hours, Cell Titer-Glo
# Method: as §3, §4
# [6] = system: BHY; experiment: as above; type: cell-based; details: 72 hours, Cell Titer-Glo
# Method: as §3, §4
# [7] = system: SCC-9; experiment: as above; type: cell-based; details: Homo sapiens, 72 hours, Cell Titer-Glo
# Method: as §3, §4
# [8] = system: A253; experiment: as above; type: cell-based; details: Homo sapiens, 72 hours, Cell Titer-Glo
# Method: as §3, §4
# [9] = system: SCC-25; experiment: as above; type: cell-based; details: Homo sapiens, 72 hours, Cell Titer-Glo
# Method: as §3, §4
# [10] = system: Detroit562; experiment: as above; type: cell-based; details: Homo sapiens, Detroit 562, 72 hours, Cell Titer-Glo
# Method: as §3, §4
# [11] = system: SCC-15; experiment: as above; type: cell-based; details: Homo sapiens, 72 hours, Cell Titer-Glo
# Method: as §3, §4
# [12] = system: CAL-33; experiment: as above; type: cell-based; details: Homo sapiens, 72 hours, Cell Titer-Glo
# Method: as §3, §4
# [13] = system: HN; experiment: as above; type: cell-based; details: 72 h
# Method: as §3, §4
# [14] = system: FADU; experiment: Apoptosis assay for HN cancer cell lines (Caspase 3/7-Glo); type: cell-based; details: 24 hours
# Method: (§5) Apoptosis Assay for HN Cancer Cell Lines.
# (§6) Prior to testing, cells were grown and expanded in culture flasks to provide sufficient amounts of starting material. Cells were then diluted to their desired densities and added directly to compound-spotted 384-well plates. Cells were allowed to grow for 24 hours in 5% CO2 at 37° C. The apoptotic response was assessed by quantifying the activities of caspase 3 and caspase 7 (Caspase 3/7-Glo) in treated cells and control cells at the 24-hour time point. All data was normalized and represented as a value relative to the DMSO-treated cells. Results were then expressed as CalX, which is the minimum compound concentration required to double the levels of caspase 3/7 relative to those of the DMSO-treated cells during their treatment period.
# [15] = system: CAL-27; experiment: as above; type: cell-based; details: 24 hours
# Method: as §5, §6
# [16] = system: RPMI-2650; experiment: as above; type: cell-based; details: 24 hours
# Method: as §5, §6
# [17] = system: BHY; experiment: as above; type: cell-based; details: 24 hours
# Method: as §5, §6
# [18] = system: SCC-9; experiment: as above; type: cell-based; details: 24 hours
# Method: as §5, §6
# [19] = system: A253; experiment: as above; type: cell-based; details: 24 hours
# Method: as §5, §6
# [20] = system: SCC-25; experiment: as above; type: cell-based; details: 24 hours
# Method: as §5, §6
# [21] = system: Detroit562; experiment: as above; type: cell-based; details: 24 hours
# Method: as §5, §6
# [22] = system: SCC-15; experiment: as above; type: cell-based; details: 24 hours
# Method: as §5, §6
# [23] = system: CAL-33; experiment: as above; type: cell-based; details: 24 hours
# Method: as §5, §6
# [24] = system: HN; experiment: as above; type: cell-based; details: minimum concentration to double caspase 3/7 vs DMSO, 24 hours
# Method: as §5, §6
# [25] = corrected for cell count at time zero
# [26] = Table 1, minimum concentration to double caspase 3/7 vs DMSO
# [27] = minimum concentration to double caspase 3/7 vs DMSO
smiles,measurement,setting,value
"CCN1C(=O)CNc2ncc(-c3ccc(-c4nc[nH]n4)nc3C)nc21 [Compound 1, 1-ethyl-7-(2-methyl-6-(1H-1,2,4-triazol-3-yl)pyridin-3-yl)-3,4-dihydropyrazino[2,3-b]pyrazin-2(1H)-one]","apoptosis (activated caspase 3 and 7, CellEvent MFI)",[1],Apoptosis was observed in some patient-derived samples
same,IC50,"[2]; Unknown, Left palate, read-out: Prolif IC50",547 nM
same,IC50,"[2]; person, H&N carcinoma, Left superior segment, read-out: Prolif IC50",260 nM
same,IC50,"[2]; person, H&N carcinoma, Lung, read-out: Prolif IC50",342 nM
same,IC50,"[2]; person, Larynx carcinoma, Left side neck, read-out: Prolif IC50",103 nM
same,IC50,"[2]; person, Squamous carcinoma H&N, Neck, read-out: Prolif IC50",1720 nM
same,IC50,"[2]; person, Squamous carcinoma H&N, Right lower lobe lung, read-out: Prolif IC50",139 nM
same,IC50,"[2]; person, Squamous carcinoma H&N, Right nasal, read-out: Prolif IC50",240 nM
same,IC50,"[2]; person, Squamous cell H&N, Cervical lymph node, read-out: Prolif IC50",146 nM
same,IC50,"[2]; person, Squamous cell H&N, Left chest wall, read-out: Prolif IC50",157 nM
same,IC50,"[2]; person, Squamous cell H&N, Left neck lymph node, read-out: Prolif IC50",499 nM
same,IC50,"[2]; person, Squamous cell H&N, Left neck, cervical, read-out: Prolif IC50",429 nM
same,IC50,"[2]; person, Squamous cell H&N, Left tonsil, read-out: Prolif IC50",162 nM
same,IC50,"[2]; person, Squamous cell H&N, Mass, left latisimal muscle, read-out: Prolif IC50",115 nM
same,IC50,"[2]; person, Squamous cell H&N, Mass, skull base excision, read-out: Prolif IC50",157 nM
same,IC50,"[2]; person, Squamous cell H&N, Pleural fluid, read-out: Prolif IC50",536 nM
same,IC50,"[2]; person, Squamous cell H&N, Right lower lobe lung, read-out: Prolif IC50",322 nM
same,IC50,"[2]; person, Squamous cell H&N, Right pleural biopsy, read-out: Prolif IC50",441 nM
same,IC50,"[2]; person, Squamous cell tongue, Right axilliary node, read-out: Prolif IC50",318 nM
same,IC50,"[2]; person, Tongue, Left neck mass, read-out: Prolif IC50",377 nM
same,IC50,"[2]; span over all patient tumor cell samples of Table 3, read-out: inhibition of proliferation of patient tumor cells, IC50",100 to 1800 nM
same,IC50,[3],1160 nM
same,GI50,[3]; [25],792 nM
same,IC50,[4],177 nM
same,GI50,[4]; [25],144 nM
same,IC50,[5],389 nM
same,GI50,[5]; [25],219 nM
same,IC50,[6],210 nM
same,GI50,[6]; [25],39.5 nM
same,IC50,[7],362 nM
same,GI50,[7]; [25],129 nM
same,IC50,[8],378 nM
same,GI50,[8]; [25],303 nM
same,IC50,[9],179 nM
same,GI50,[9]; [25],127 nM
same,IC50,[10],254 nM
same,GI50,[10]; [25],169 nM
same,IC50,[11],679 nM
same,GI50,[11]; [25],56.8 nM
same,IC50,[12],69.8 nM
same,GI50,[12]; [25],42.7 nM
same,GI50,[13],117 nM
same,IC50,[13],178 nM
same,Cal X,[14]; [26],> 10 µM
same,CalX,[14]; [27],>10 µM
same,Cal X,[15]; [26],> 10 µM
same,CalX,[15]; [27],>10 µM
same,Cal X,[16]; [26],> 10 µM
same,CalX,[16]; [27],>10 µM
same,Cal X,[17]; [26],> 10 µM
same,CalX,[17]; [27],>10 µM
same,Cal X,[18]; [26],> 10 µM
same,CalX,[18]; [27],>10 µM
same,Cal X,[19]; [26],> 10 µM
same,CalX,[19]; [27],>10 µM
same,Cal X,[20]; [26],> 10 µM
same,CalX,[20]; [27],>10 µM
same,Cal X,[21]; [26],> 10 µM
same,CalX,[21]; [27],>10 µM
same,Cal X,[22]; [26],> 10 µM
same,CalX,[22]; [27],>10 µM
same,Cal_X,"[23]; Table 1, minimum concentration to double caspase 3/7 vs DMSO, in µM",0.8764
same,CalX,[23]; [27],0.8764 µM
same,CalX,[24],>10 µM
